Laboratory results: patent US8247573B2, “Substituted N-(2-mercaptopyridin-3-yl)amides as KCNQ2/3 modulators” (Gruenenthal GmbH, priority 2009, dated 2012)

Biological target: T1, KCNQ2/3 channels (Homo sapiens, UniProt O43525+O43526)
T1 construct: expressed in transfected cells; host or cells: CHO-K1
Assay: Fluorescence assay using a voltage-sensitive dye (fluorimetry)
Type: cell-based
Details: CHO-K1 cells expressing KCNQ2/3; for EC50: agonistic activity; for Emax: read-out: Fluorimetry % efficacy (I/EC50, retigabine = 100%)
Description: Pharmacological Experiments Fluorescence Assay Using a Voltage-Sensitive Dye
Human CHO-K1 cells expressing KCNQ2/3 channels are cultivated adherently at 37° C., 5% CO2 and 95% humidity in cell culture bottles (e.g. 80 cm^2 TC flasks, Nunc) with DMEM-high glucose (Sigma Aldrich, D7777) including 10% FCS (PAN Biotech, e.g. 3302-P270521) or alternatively MEM Alpha Medium (1×, liquid, Invitrogen, #22571), 10% foetal calf serum (FCS) (Invitrogen, #10270-106, heat-inactivated) and the necessary selection antibiotics.
Before being seeded out for the measurements, the cells are washed with a 1×DPBS buffer without Ca^2+/Mg^2+ (e.g. Invitrogen, #14190-094) and detached from the bottom of the culture vessel by means of Accutase (PAA Laboratories, #L11-007) (incubation with Accutase for 15 min at 37° C.). The cell count then present is determined using a CASY™ cell counter (TCC model, Schärfe System) in order subsequently to apply 20,000 to 30,000 cells/well/100 μl of the described nutrient medium, depending on density optimisation for the individual cell line, to 96-well measuring plates of the Corning™ CellBIND™ type (flat clear-bottom black polystyrene microplates, #3340). Incubation is then carried out for one hour at room temperature, without gassing or adjusting the humidity, followed by incubation for 24 hours at 37° C., 5% CO2 and 95% humidity.
The voltage-sensitive fluorescent dye from the Membrane Potential Assay Kit (Red™ bulk format part R8123 for FLIPR, MDS Analytical Technologies™) is prepared by dissolving the contents of a vessel of Membrane Potential Assay Kit Red Component A in 200 ml of extracellular buffer (ES buffer, 120 mM NaCl, 1 mM KCl, 10 mM HEPES, 2 mM CaCl2, 2 mM MgCl2, 10 mM glucose; pH 7.4). After removal of the nutrient medium, the cells are washed with 200 μl of ES buffer, then covered with a layer of 100 μl of the dye solution prepared above and incubated for 45 min at room temperature with exclusion of light.
The fluorescence measurements are carried out with a BMG Labtech FLUOstar™, BMG Labtech NOVOstar™ or BMG Labtech POLARstar™ instrument (525 nm excitation, 560 nm emission, bottom-read mode). After incubation of the dye, 50 μl of the substances to be tested in the desired concentrations, or 50 μl of ES buffer for control purposes, are introduced into separate cavities of the measuring plate and incubated for 30 min at room temperature whilst being shielded from light. The fluorescence intensity of the dye is then measured for 5 min and the fluorescence value F1 of each well is thus determined at a given, constant time. 15 μl of a […] KCl solution […] are then added to each well. The change in fluorescence is subsequently measured until all relevant measured values have been obtained (mainly […]). At a given time after KCl application, a fluorescence value F2 is determined, in this case at the time of the fluorescence peak.
For calculation, the fluorescence intensity F2 is compared with the fluorescence intensity F1, and the agonistic activity of the target compound on the potassium channel is determined therefrom. F2 and F1 are calculated as follows: […]
In order to determine whether a substance has an agonistic activity,
[formula] is determined by adding to the reaction batch only the buffer solution instead of the substance to be tested, determining the value F1K of the fluorescence intensity, adding the potassium ions as described above and measuring a value F2K of the fluorescence intensity. Then F2K and F1K are calculated as follows: […]
A substance has an agonistic activity on the potassium channel if
Independently of the comparison of
[formula] it is also possible to conclude that a target compound has an agonistic activity if an increase in
[formula] is to be observed as the dosage of the target compound increases.
Calculations of EC50 values are carried out with the aid of Prism v4.0 software (GraphPad Softwares™).

[1] = relative to retigabine = 100%, negative values = antagonistic

| SMILES | EC50 [nM] | Emax [1] [%] | Fluorimetry % efficacy (I/EC50, retigabine = 100%) [1] [%] |
| --- | --- | --- | --- |
| O=C(Nc1cccnc1SCCOc1ccc(F)cc1)c1ccc(F)c(F)c1 [Example 64, 3,4-Difluoro-N-[2-[2-(4-fluorophenoxy)-ethylsulfanyl]-pyridin-3-yl]benzamide] | 200 | 49 | – |
| O=C(CC1CCCCC1)Nc1cccnc1SCCS(=O)(=O)c1ccccc1 [Example 1, N-[2-[2-(Benzenesulfonyl)-ethylsulfanyl]-pyridin-3-yl]-2-cyclohexyl acetamide] | 95 | 172 | – |
| O=C(Cc1cc2ccccc2s1)Nc1cccnc1SCCS(=O)(=O)c1cccc(C(F)(F)F)c1 [Example 59, 2-(Benzo[b]thiophen-2-yl)-N-[2-[2-[[3-(trifluoromethyl)phenyl]sulfonyl]-ethylsulfanyl]-pyridin-3-yl]acetamide] | 925 | 139 | – |
| O=C(Cc1cccs1)Nc1cccnc1SCCCc1cccc(C(F)(F)F)c1 [Example 23, 2-Thiophen-2-yl-N-[2-[3-[3-(trifluoromethyl)phenyl]-propylsulfanyl]-pyridin-3-yl]acetamide] | 157 | 165 | – |
| O=C(CCC1CCCCC1)Nc1cccnc1SCCS(=O)(=O)c1ccccc1 [Example 6, N-[2-[2-(Benzenesulfonyl)-ethylsulfanyl]-pyridin-3-yl]-3-cyclohexyl propionamide] | 76 | 225 | – |
| O=C(CC1CCCCC1)Nc1cccnc1SCCSc1ccccc1 [Example 44, 2-Cyclohexyl-N-[2-(2-phenylsulfanyl-ethylsulfanyl)-pyridin-3-yl]acetamide] | 153 | 80 | – |
| O=C(CC1CCCCC1)Nc1cccnc1SCCSc1cccc(C(F)(F)F)c1 [Example 29, 2-Cyclohexyl-N-[2-[2-[[3-(trifluoromethyl)phenyl]sulfanyl]-ethylsulfanyl]-pyridin-3-yl]acetamide] | 312 | 108 | – |
| O=C(Cc1ccccc1O)Nc1cccnc1SCCS(=O)(=O)c1cccc(C(F)(F)F)c1 [Example 12, 2-(2-Hydroxyphenyl)-N-[2-[2-[[3-(trifluoromethyl)phenyl]sulfonyl]-ethylsulfanyl]-pyridin-3-yl]acetamide] | 168 | 141 | – |
| O=C(Cc1cccs1)Nc1cccnc1SCCSc1ccccc1 [Example 21, N-[2-(2-Phenylsulfanyl-ethylsulfanyl)-pyridin-3-yl]-2-thiophen-2-yl acetamide] | 83 | 152 | – |
| COc1cccc(CC(=O)Nc2cccnc2SCCS(=O)(=O)c2cccc(C(F)(F)F)c2)c1 [Example 11, 2-(3-Methoxyphenyl)-N-[2-[2-[[3-(trifluoromethyl)phenyl]sulfonyl]-ethylsulfanyl]-pyridin-3-yl]acetamide] | 588 | 109 | – |
| O=C(CC1CCc2ccccc2C1)Nc1cccnc1SCCS(=O)(=O)c1cccc(C(F)(F)F)c1 (centres unmarked) [Example 52, 2-(1,2,3,4-Tetrahydronaphthalen-2-yl)-N-[2-[2-[[3-(trifluoromethyl)phenyl]sulfonyl]-ethylsulfanyl]-pyridin-3-yl]acetamide] | 208 | 59 | – |
| O=C(Cc1cccs1)Nc1cccnc1SCCS(=O)(=O)c1ccccc1 [Example 7, N-[2-[2-(Benzenesulfonyl)-ethylsulfanyl]-pyridin-3-yl]-2-thiophen-2-yl acetamide] | 424 | 125 | – |
| O=C(Nc1cccnc1SCCS(=O)(=O)c1cccc(C(F)(F)F)c1)c1ccc(Cl)nc1 [Example 35, 6-Chloro-N-[2-[2-[[3-(trifluoromethyl)phenyl]sulfonyl]-ethylsulfanyl]-pyridin-3-yl]-pyridine-3-carboxylic acid amide] | – | 43 | – |
| O=C(CC1CC2CCC1C2)Nc1cccnc1SCCS(=O)(=O)c1cccc(C(F)(F)F)c1 (centres unmarked) [Example 62, 2-(5-Bicyclo[2.2.1]heptanyl)-N-[2-[2-[[3-(trifluoromethyl)phenyl]sulfonyl]-ethylsulfanyl]-pyridin-3-yl]acetamide] | 23.5 | 168 | – |

Further lines, results first:

| EC50 [nM] | Emax [1] [%] | Fluorimetry % efficacy (I/EC50, retigabine = 100%) [1] [%] | SMILES |
| --- | --- | --- | --- |
| 45 | 167 | – | O=C(CC1CCCC1)Nc1cccnc1SCCS(=O)(=O)c1cccc(C(F)(F)F)c1 [Example 14, 2-Cyclopentyl-N-[2-[2-[[3-(trifluoromethyl)phenyl]sulfonyl]-ethylsulfanyl]-pyridin-3-yl]acetamide] |
| – | – | 58 | O=C(Cc1cccs1)Nc1cccnc1SCCOc1ccccc1 [Example 45, N-[2-(2-Phenoxy-ethylsulfanyl)-pyridin-3-yl]-2-thiophen-2-yl acetamide] |
| 55 | 74 | – | COc1ccc(CC(=O)Nc2cccnc2SCCS(=O)(=O)c2cccc(C(F)(F)F)c2)cc1 [Example 10, 2-(4-Methoxyphenyl)-N-[2-[2-[[3-(trifluoromethyl)phenyl]sulfonyl]-ethylsulfanyl]-pyridin-3-yl]acetamide] |
| 106 | 32 | – | O=C(Nc1cccnc1SCCS(=O)(=O)c1cccc(C(F)(F)F)c1)c1ccc(F)cc1O [Example 51, 4-Fluoro-2-hydroxy-N-[2-[2-[[3-(trifluoromethyl)phenyl]sulfonyl]-ethylsulfanyl]-pyridin-3-yl]benzamide] |
| 180 | 97 | – | O=C(Cc1cccs1)Nc1cccnc1SCCSc1cccc(C(F)(F)F)c1 [Example 20, 2-Thiophen-2-yl-N-[2-[2-[[3-(trifluoromethyl)phenyl]sulfanyl]-ethylsulfanyl]-pyridin-3-yl]acetamide] |
| 19 | 108 | – | O=C(CC1CCCCCC1)Nc1cccnc1SCCS(=O)(=O)c1cccc(C(F)(F)F)c1 [Example 49, 2-Cycloheptyl-N-[2-[2-[[3-(trifluoromethyl)phenyl]sulfonyl]-ethylsulfanyl]-pyridin-3-yl]acetamide] |
| 47.5 | 167 | – | O=C(CCC1CCCCCC1)Nc1cccnc1SCCS(=O)(=O)c1cccc(C(F)(F)F)c1 [Example 58, 3-Cycloheptyl-N-[2-[2-[[3-(trifluoromethyl)phenyl]sulfonyl]-ethylsulfanyl]-pyridin-3-yl]propionamide] |
| – | 35 | – | O=C(Nc1cccnc1SCCS(=O)(=O)c1cccc(C(F)(F)F)c1)C1CCCOC1 (centres unmarked) [Example 38, N-[2-[2-[[3-(Trifluoromethyl)phenyl]sulfonyl]-ethylsulfanyl]-pyridin-3-yl]-tetrahydropyrane-3-carboxylic acid amide] |
| 123 | 82 | – | O=C(CCc1cccs1)Nc1cccnc1SCCS(=O)(=O)c1cccc(C(F)(F)F)c1 [Example 26, 3-Thiophen-2-yl-N-[2-[2-[[3-(trifluoromethyl)phenyl]sulfonyl]-ethylsulfanyl]-pyridin-3-yl]propionamide] |
| 277 | 152 | – | O=C(CCC1CCCC1)Nc1cccnc1SCCS(=O)(=O)c1cccc(C(F)(F)F)c1 [Example 28, 3-Cyclopentyl-N-[2-[2-[[3-(trifluoromethyl)phenyl]sulfonyl]-ethylsulfanyl]-pyridin-3-yl]propionamide] |
| 841 | 109 | – | O=C(/C=C/c1ccc(F)cc1)Nc1cccnc1SCCS(=O)(=O)c1cccc(C(F)(F)F)c1 [Example 31, (E)-3-(4-Fluorophenyl)-N-[2-[2-[[3-(trifluoromethyl)phenyl]sulfonyl]-ethylsulfanyl]-pyridin-3-yl]acrylamide] |
